The text below walks through data of PubChem BioAssay AID1259407 (Chemical Carcinogenesis Research Information System (CCRIS), 2018).

Each structure is given as a SMILES string. Activity calls are given as the source filed them. The rule behind the calls is not given here.

For the data set, the system named is CCRIS mutagenicity, Ames/micronucleus/aberration tests. The data set is described as follows: CCRIS mutagenicity studies.
The mark [1] stands for this setting: Test System: AMES SALMONELLA TYPHIMURIUM, Strain/Indicator: TA98, Metabolic Activation: NONE, Method: STANDARD PLATE.
Where [2] appears, read: Test System: AMES SALMONELLA TYPHIMURIUM, Strain/Indicator: TA102, Metabolic Activation: NONE, Method: STANDARD PLATE.
The mark [3] stands for this setting: Test System: MOUSE LYMPHOMA, Strain/Indicator: L5178Y (TK+/TK-), Metabolic Activation: NONE, Method: SUSPENSION/PLATE.
Where [4] appears, read: Test System: MOUSE LYMPHOMA, Strain/Indicator: L5178Y (TK+/TK-), Metabolic Activation: RAT, LIVER, S-9, AROCLOR 1254, Method: SUSPENSION/PLATE.
[5] abbreviates: Test System: AMES SALMONELLA TYPHIMURIUM, Strain/Indicator: TA1535, Metabolic Activation: NONE, Method: STANDARD PLATE.
Where [6] appears, read: Test System: AMES SALMONELLA TYPHIMURIUM, Strain/Indicator: TA100, Metabolic Activation: NONE, Method: STANDARD PLATE.
Setting [7] is: Test System: AMES SALMONELLA TYPHIMURIUM, Strain/Indicator: TA98, Metabolic Activation: RAT, LIVER, S-9, AROCLOR 1254, Method: STANDARD PLATE.

For `OB(O)O`, the mutagenic call is, setting by setting: (End Point: In vitro chromosomal aberrations, Test System: Human peripheral lymphocytes, Metabolic Activation: None) “active; positive (structural changes)”; (End Point: In vitro micronucleus, Test System: Human peripheral blood lymphocytes, Metabolic Activation: None) “inactive; negative”; (Test System: AMES SALMONELLA TYPHIMURIUM, Strain/Indicator: TA98, Metabolic Activation: HAMSTER, LIVER, S-9, AROCLOR 1254, Method: PREINCUBATION) “inactive; negative”; (Test System: AMES SALMONELLA TYPHIMURIUM, Strain/Indicator: TA98, Metabolic Activation: NONE, Method: PREINCUBATION) “inactive; negative”; under setting [1], “inactive; negative”; (Test System: AMES SALMONELLA TYPHIMURIUM, Strain/Indicator: TA98, Metabolic Activation: RAT LIVER S-9, PHENOBARBITAL AND BETA-NAPHTHOFLAVONE, Method: PREINCUBATION) “inactive; negative”. For the same molecule, the mutagenic call is, setting by setting: (Test System: AMES SALMONELLA TYPHIMURIUM, Strain/Indicator: TA98, Metabolic Activation: RAT, LIVER, S-9, AROCLOR 1254, Method: PREINCUBATION) “inactive; negative”; (Test System: AMES SALMONELLA TYPHIMURIUM, Strain/Indicator: TA98, Metabolic Activation: RAT, LIVER, S-9, BETA-NAPHTHOFLAVONE AND PHENOBARBITAL, Method: STANDARD PLATE) “inactive; negative”; (Test System: AMES SALMONELLA TYPHIMURIUM, Strain/Indicator: TA100, Metabolic Activation: HAMSTER, LIVER, S-9, AROCLOR 1254, Method: PREINCUBATION) “inactive; negative”; (Test System: AMES SALMONELLA TYPHIMURIUM, Strain/Indicator: TA100, Metabolic Activation: NONE, Method: PREINCUBATION) “inactive; negative”; (Test System: AMES SALMONELLA TYPHIMURIUM, Strain/Indicator: TA100, Metabolic Activation: RAT LIVER S-9, PHENOBARBITAL AND BETA-NAPHTHOFLAVONE, Method: PREINCUBATION) “inactive; negative”; (Test System: AMES SALMONELLA TYPHIMURIUM, Strain/Indicator: TA100, Metabolic Activation: RAT, LIVER, S-9, AROCLOR 1254, Method: PREINCUBATION) “inactive; negative”. Besides, the mutagenic call is “inactive; negative” (Test System: AMES SALMONELLA TYPHIMURIUM, Strain/Indicator: TA100, Metabolic Activation: RAT, LIVER, S-9, BETA-NAPHTHOFLAVONE AND PHENOBARBITAL, Method: STANDARD PLATE); “inactive; negative” under setting [2]; “inactive; negative” (Test System: AMES SALMONELLA TYPHIMURIUM, Strain/Indicator: TA102, Metabolic Activation: RAT, LIVER, S-9, BETA-NAPHTHOFLAVONE AND PHENOBARBITAL, Method: STANDARD PLATE); “inactive; negative” (Test System: AMES SALMONELLA TYPHIMURIUM, Strain/Indicator: TA1535, Metabolic Activation: HAMSTER, LIVER, S-9, AROCLOR 1254, Method: PREINCUBATION); “inactive; negative” (Test System: AMES SALMONELLA TYPHIMURIUM, Strain/Indicator: TA1535, Metabolic Activation: NONE, Method: PREINCUBATION); “inactive; negative” (Test System: AMES SALMONELLA TYPHIMURIUM, Strain/Indicator: TA1535, Metabolic Activation: RAT LIVER S-9, PHENOBARBITAL AND BETA-NAPHTHOFLAVONE, Method: PREINCUBATION). Further, the mutagenic call is “inactive; negative” (Test System: AMES SALMONELLA TYPHIMURIUM, Strain/Indicator: TA1535, Metabolic Activation: RAT, LIVER, S-9, AROCLOR 1254, Method: PREINCUBATION); “inactive; negative” (Test System: AMES SALMONELLA TYPHIMURIUM, Strain/Indicator: TA1537, Metabolic Activation: HAMSTER, LIVER, S-9, AROCLOR 1254, Method: PREINCUBATION); “inactive; negative” (Test System: AMES SALMONELLA TYPHIMURIUM, Strain/Indicator: TA1537, Metabolic Activation: NONE, Method: PREINCUBATION); “inactive; negative” (Test System: AMES SALMONELLA TYPHIMURIUM, Strain/Indicator: TA1537, Metabolic Activation: RAT LIVER S-9, PHENOBARBITAL AND BETA-NAPHTHOFLAVONE, Method: PREINCUBATION); “inactive; negative” (Test System: AMES SALMONELLA TYPHIMURIUM, Strain/Indicator: TA1537, Metabolic Activation: RAT, LIVER, S-9, AROCLOR 1254, Method: PREINCUBATION); “inactive; negative” (Test System: AMES SALMONELLA TYPHIMURIUM, Strain/Indicator: TA1538, Metabolic Activation: NONE, Method: PREINCUBATION). Further, the mutagenic call by setting is: (Test System: AMES SALMONELLA TYPHIMURIUM, Strain/Indicator: TA1538, Metabolic Activation: RAT LIVER S-9, PHENOBARBITAL AND BETA-NAPHTHOFLAVONE, Method: PREINCUBATION) “inactive; negative”; (Test System: E.COLI, Strain/Indicator: WP2UVRA, Metabolic Activation: NONE, Method: PREINCUBATION) “inactive; negative”; (Test System: E.COLI, Strain/Indicator: WP2UVRA, Metabolic Activation: RAT LIVER S-9, PHENOBARBITAL AND BETA-NAPHTHOFLAVONE, Method: PREINCUBATION) “inactive; negative”; under setting [3], “inactive; negative”; under setting [4], “inactive; negative”.

In the case of `N[C@@H](CCC(=O)N[C@@H](CSC(=O)NCCCl)C(=O)NCC(=O)O)C(=O)O`, the mutagenic call under setting [5] was “active; positive”.

`O=[N+]([O-])c1ccc(-c2nc3n(c2[N+](=O)[O-])CCS3)cc1`: the mutagenic call is “active; positive” under setting [1]; “active; positive” under setting [6]; “inactive; negative” under setting [5]; “inactive; negative” (Test System: AMES SALMONELLA TYPHIMURIUM, Strain/Indicator: TA1537, Metabolic Activation: NONE, Method: STANDARD PLATE); “active; positive” (Test System: AMES SALMONELLA TYPHIMURIUM, Strain/Indicator: TA1538, Metabolic Activation: NONE, Method: STANDARD PLATE).

As for `CCC12OC1(C(=O)OC)C(=O)OC2C` (stereo unspecified), the mutagenic call is “inactive; negative” (Test System: AMES SALMONELLA TYPHIMURIUM, Strain/Indicator: TA98, Metabolic Activation: NONE, Method: DISK ASSAY); “inactive; negative” under setting [1]; “inactive; negative” (Test System: AMES SALMONELLA TYPHIMURIUM, Strain/Indicator: TA98, Metabolic Activation: RAT, LIVER, S-9, AROCLOR 1254, Method: DISK ASSAY); “active; positive” under setting [7].

Regarding `O=C([O-])/C=C/C(=O)[O-].[Fe+2]`, the mutagenic call by setting is: (Test System: AMES SALMONELLA TYPHIMURIUM, Strain/Indicator: TA98, Metabolic Activation: HAMSTER, LIVER, S-9, AROCLOR 1254, Method: STANDARD PLATE) “active; positive”; under setting [1], “inactive; negative”; under setting [7], “active; positive”; (Test System: AMES SALMONELLA TYPHIMURIUM, Strain/Indicator: TA100, Metabolic Activation: HAMSTER, LIVER, S-9, AROCLOR 1254, Method: STANDARD PLATE) “inactive; negative”; under setting [6], “inactive; negative”; (Test System: AMES SALMONELLA TYPHIMURIUM, Strain/Indicator: TA100, Metabolic Activation: RAT, LIVER, S-9, AROCLOR 1254, Method: STANDARD PLATE) “inactive; negative”. Besides, the mutagenic call by setting is: (Test System: AMES SALMONELLA TYPHIMURIUM, Strain/Indicator: TA102, Metabolic Activation: HAMSTER, LIVER, S-9, AROCLOR 1254, Method: STANDARD PLATE) “inactive; negative”; (Test System: AMES SALMONELLA TYPHIMURIUM, Strain/Indicator: TA102, Metabolic Activation: NONE, Method: PREINCUBATION) “inactive; negative”; under setting [2], “inactive; negative”; (Test System: AMES SALMONELLA TYPHIMURIUM, Strain/Indicator: TA102, Metabolic Activation: RAT, LIVER, S-9, AROCLOR 1254, Method: STANDARD PLATE) “inactive; negative”; under setting [3], “active; positive. reevaluation of results: positive”; under setting [4], “inactive; negative. reevaluation of results: negative”.
